Test results reported in patent US20030199692A1, “Propanoic acid derivatives that inhibit the binding of integrins to their receptors” (priority 1999, published 2003).

Target: T1, α4β1 integrin (Homo sapiens, UniProt P05556+P13612)
T1 construct: endogenous in cells; host or cells: Ramos cells
Experiment: Inhibition of adhesion of calcein AM-labeled Ramos cells to CS1 (fibronectin) peptide-conjugated ovalbumin
Assay type: cell-based
Details: Table 4; Ramos cell adhesion to CS1-conjugated ovalbumin, 30 minutes at 37° C.
Protocol: The ability of compounds of the present invention to inhibit binding is determined by a procedure in which a 26-amino acid peptide containing the CS1 sequence of fibronectin with an N-terminal Cys ([…]) was coupled to maleimide activated ovalbumin. Bovine serum albumin (BSA) and CS1 conjugated ovalbumin were coated onto 96-well polystyrene plates at 0.5 mg/ml in TBS (50 mM Tris, pH 7.5; 150 mM NaCl) at 4° C. for 16 hours. The plates were washed three times with TBS and blocked with TBS containing 3% BSA at room temperature for 4 hours. Blocked plates were washed three times in binding buffer (TBS; 1 mM MgCl2; 1 mM CaCl2; 1 mM MnCl2) prior to assay. Ramos cells fluorescently labeled with calcein AM were resuspended in binding buffer (10^7 cells/ml) and diluted 1:2 with same buffer with or without compound. The cells were added immediately to the wells (2.5×10^5 cells/well) and incubated for 30 minutes at 37° C. Following three washes with binding buffer, adherent cells were lysed and quantitated using a fluorometer. IC50 is defined as the dose required to give 50% inhibition. MS in Table 3 stands for Mass Spec. nd stands for not determined in the Tables. A stands for inhibition in Table 2, and the percent inhibition indicates the inhibition of cell adhesion when compound is included in the assay at a concentration of 100 μM. The lower the IC50 value and the greater the percentage of inhibition, the more efficient the compound is at prevention of cell adhesion.

T1 sequence (P13612 34-1032): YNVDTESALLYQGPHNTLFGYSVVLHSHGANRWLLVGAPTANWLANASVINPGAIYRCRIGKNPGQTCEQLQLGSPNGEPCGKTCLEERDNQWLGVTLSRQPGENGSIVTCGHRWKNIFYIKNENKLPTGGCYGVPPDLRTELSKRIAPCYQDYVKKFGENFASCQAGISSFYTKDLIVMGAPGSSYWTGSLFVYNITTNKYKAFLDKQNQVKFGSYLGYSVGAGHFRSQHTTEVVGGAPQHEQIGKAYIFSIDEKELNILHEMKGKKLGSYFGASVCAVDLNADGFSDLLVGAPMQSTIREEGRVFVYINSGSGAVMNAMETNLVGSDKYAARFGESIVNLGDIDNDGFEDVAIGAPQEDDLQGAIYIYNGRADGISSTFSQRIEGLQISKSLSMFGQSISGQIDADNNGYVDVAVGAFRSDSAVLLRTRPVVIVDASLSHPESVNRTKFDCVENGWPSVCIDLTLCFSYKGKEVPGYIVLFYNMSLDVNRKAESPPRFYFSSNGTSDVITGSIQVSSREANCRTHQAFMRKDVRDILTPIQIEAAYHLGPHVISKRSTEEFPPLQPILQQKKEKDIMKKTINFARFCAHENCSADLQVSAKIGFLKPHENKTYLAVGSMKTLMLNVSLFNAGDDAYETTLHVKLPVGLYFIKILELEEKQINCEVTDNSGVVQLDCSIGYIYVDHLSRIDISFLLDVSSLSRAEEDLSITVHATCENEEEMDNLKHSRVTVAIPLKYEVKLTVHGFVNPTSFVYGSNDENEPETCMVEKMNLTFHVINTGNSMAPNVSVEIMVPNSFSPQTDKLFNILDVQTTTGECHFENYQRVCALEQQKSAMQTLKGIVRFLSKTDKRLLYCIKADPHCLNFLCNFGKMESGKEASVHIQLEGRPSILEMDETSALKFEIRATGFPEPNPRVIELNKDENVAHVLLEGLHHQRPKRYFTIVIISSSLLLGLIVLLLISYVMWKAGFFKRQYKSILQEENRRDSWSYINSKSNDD
T1 sequence (P05556 21-798): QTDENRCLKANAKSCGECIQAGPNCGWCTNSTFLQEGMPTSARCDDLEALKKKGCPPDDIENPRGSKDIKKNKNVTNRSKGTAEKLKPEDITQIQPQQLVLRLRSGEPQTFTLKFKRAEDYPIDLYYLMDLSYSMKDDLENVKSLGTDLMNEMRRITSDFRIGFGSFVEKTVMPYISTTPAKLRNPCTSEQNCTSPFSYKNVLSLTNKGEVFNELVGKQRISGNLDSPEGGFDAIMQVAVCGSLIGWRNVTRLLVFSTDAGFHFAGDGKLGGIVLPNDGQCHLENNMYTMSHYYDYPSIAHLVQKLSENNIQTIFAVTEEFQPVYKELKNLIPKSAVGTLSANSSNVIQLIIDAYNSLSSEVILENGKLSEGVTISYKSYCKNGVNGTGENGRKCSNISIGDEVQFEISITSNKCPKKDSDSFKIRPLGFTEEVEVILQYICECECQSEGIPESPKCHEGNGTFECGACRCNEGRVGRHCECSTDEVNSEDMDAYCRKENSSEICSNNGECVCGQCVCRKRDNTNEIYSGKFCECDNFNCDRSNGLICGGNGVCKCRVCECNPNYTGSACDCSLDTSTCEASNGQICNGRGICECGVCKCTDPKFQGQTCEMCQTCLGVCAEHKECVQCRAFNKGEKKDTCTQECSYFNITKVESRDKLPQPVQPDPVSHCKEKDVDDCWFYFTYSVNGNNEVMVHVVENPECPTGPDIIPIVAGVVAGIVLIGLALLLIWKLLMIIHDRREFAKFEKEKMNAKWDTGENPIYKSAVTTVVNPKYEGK

Row | Compound | IC50
1 | CCCCC(C(=O)N[C@@H](CC(=O)O)c1cccc(OC(C)C)c1)n1cc(C)cc(Cc2ccc(F)cc2Cl)c1=O (stereo partly drawn) [(3S)-3-({2-[3-[(2-chloro-4-fluorophenyl)methyl]-5-methyl-2-oxo-1(2H)-pyridinyl]hexanoyl}amino)-3-{3-[(1-methylethyl)oxy]phenyl}propanoic acid] | 17 nM
2 | CCCCC(C(=O)N[C@@H](CC(=O)O)c1cccc(OC(C)C)c1)n1cc(C)cc(Cc2c(Cl)cc(Cl)cc2OC)c1=O (stereo partly drawn) [(3S)-3-({2-[3-{[2,4-dichloro-6-(methyloxy)phenyl]methyl}-5-methyl-2-oxo-1(2H)-pyridinyl]hexanoyl}amino)-3-{3-[(1-methylethyl)oxy]phenyl}propanoic acid] | 275 nM
3 | CCCCC(C(=O)N[C@@H](CC(=O)O)c1cccc(CC(C)C)c1)n1cc(C)cc(Cc2ccccc2)c1=O (stereo partly drawn) [(3S)-3-({2-[5-methyl-2-oxo-3-(phenylmethyl)-1(2H)-pyridinyl]hexanoyl}amino)-3-[3-(2-methylpropyl)phenyl]propanoic acid] | 10 nM
4 | CCCCC(C(=O)N[C@@H](CC(=O)O)c1ccccc1)n1cc(C)cc(Cc2cccc3ccccc23)c1=O (stereo partly drawn) [(3S)-3-({2-[5-methyl-3-(1-naphthalenylmethyl)-2-oxo-1(2H)-pyridinyl]hexanoyl}amino)-3-phenylpropanoic acid] | 350 nM
5 | CCCCC(C(=O)N[C@@H](CC(=O)O)c1ccc(C)cc1)n1cc(C)cc(Cc2ccc3ccccc3c2)c1=O (stereo partly drawn) [(3S)-3-({2-[5-methyl-3-(2-naphthalenylmethyl)-2-oxo-1(2H)-pyridinyl]hexanoyl}amino)-3-(4-methylphenyl)propanoic acid] | 400 nM
6 | CCCCC(C(=O)N[C@@H](CC(=O)O)c1ccccc1)n1cc(C)cc(Cc2ccc3ccccc3c2)c1=O (stereo partly drawn) [(3S)-3-({2-[5-methyl-3-(2-naphthalenylmethyl)-2-oxo-1(2H)-pyridinyl]hexanoyl}amino)-3-phenylpropanoic acid] | 30 nM
7 | CCCCC(C(=O)N[C@@H](CC(=O)O)c1ccccc1)n1cc(C)cc(Cc2ccccc2C)c1=O (stereo partly drawn) [(3S)-3-({2-[5-methyl-3-[(2-methylphenyl)methyl]-2-oxo-1(2H)-pyridinyl]hexanoyl}amino)-3-phenylpropanoic acid] | 25 nM
8 | CCCCC(C(=O)N[C@@H](CC(=O)O)c1cccc(-c2ccccc2)c1)n1cc(C)cc(Cc2ccccc2)c1=O (stereo partly drawn) [(3S)-3-[1,1′-biphenyl]-3-yl-3-({2-[5-methyl-2-oxo-3-(phenylmethyl)-1(2H)-pyridinyl]hexanoyl}amino)propanoic acid] | 250 nM
9 | CCCCC(C(=O)N[C@@H](CC(=O)O)c1cccc(N(CC)CC)c1)n1cc(C)cc(Cc2ccccc2)c1=O (stereo partly drawn) [(3S)-3-[3-(diethylamino)phenyl]-3-({2-[5-methyl-2-oxo-3-{phenylmethyl)-1(2H)-pyridinyl]hexanoyl}amino)propanoic acid] | 10 nM
10 | CCCCOc1cccc([C@H](CC(=O)O)NC(=O)C(CCCC)n2cc(C)cc(Cc3ccccc3)c2=O)c1 (stereo partly drawn) [(3S)-3-{[2-(3-benzyl-5-methyl-2-oxopyridin-1(2H)-yl)hexanoyl]amino}-3-(3-butoxyphenyl)propanoic acid] | 45 nM

The next lines start with the values.

Row | IC50 | Compound
11 | 20 nM | CCCCC(C(=O)N[C@@H](CC(=O)O)c1cccc(C(F)F)c1)n1cc(C)cc(Cc2ccccc2)c1=O (stereo partly drawn) [(3S)-3-[3-(difluoromethyl)phenyl]-3-({2-[5-methyl-2-oxo-3-(phenylmethyl)-1(2H)-pyridinyl]hexanoyl}amino)propanoic acid]
12 | 160 nM | CCCCC(C(=O)N[C@@H](CC(=O)O)c1ccc(C(C)C)cc1)n1cc(C)cc(Cc2ccccc2)c1=O (stereo partly drawn) [(3S)-3-[4-(1-methylethyl)phenyl]-3-({2-[5-methyl-2-oxo-3-(phenylmethyl)-1(2H)-pyridinyl]hexanoyl}amino)propanoic acid]
13 | 10 nM | Cc1cc(C(C(=O)N[C@@H](CC(=O)O)c2cccc(OC(C)C)c2)c2ccccc2)c(=O)n(Cc2ccccc2)c1 (stereo partly drawn) [(3S)-3-{3-[(1-methylethyl)oxy]phenyl}-3-({2-[5-methyl-2-oxo-1-(phenylmethyl)-1,2-dihydro-3-pyridinyl]-2-phenylacetyl}amino)propanoic acid]
14 | 67 nM | CCCCC(C(=O)N[C@@H](CC(=O)O)c1cccc(OC(C)C)c1)n1cc(C)cc(Cc2cccc3ccccc23)c1=O (stereo partly drawn) [(3S)-3-{3-[(1-methylethyl)oxy]phenyl}-3-({2-[5-methyl-3-(1-naphthalenylmethyl)-2-oxo-1(2H)-pyridinyl]hexanoyl}amino)propanoic acid]
15 | 20 nM | CCCCC(C(=O)N[C@@H](CC(=O)O)c1cccc(OC(C)C)c1)n1cc(C)cc(Cc2ccc3ccccc3c2)c1=O (stereo partly drawn) [(3S)-3-{3-[(1-methylethyl)oxy]phenyl}-3-({2-[5-methyl-3-(2-naphthalenylmethyl)-2-oxo-1(2H)-pyridinyl]hexanoyl}amino)propanoic acid]
16 | 5 nM | CCCCC(C(=O)N[C@@H](CC(=O)O)c1cccc(OC(C)C)c1)n1cc(C)cc(Cc2ccccc2C)c1=O (stereo partly drawn) [(3S)-3-{3-[(1-methylethyl)oxy]phenyl}-3-({2-[5-methyl-3-[(2-methylphenyl)methyl]-2-oxo-1(2H)-pyridinyl]hexanoyl}amino)propanoic acid]
17 | 15 nM | CCCCC(C(=O)N[C@@H](CC(=O)O)c1ccc(C)c(OC(C)C)c1)n1cc(C)cc(Cc2ccccc2)c1=O (stereo partly drawn) [(3S)-3-{4-methyl-3-[(1-methylethyl)oxy]phenyl}-3-({2-[5-methyl-2-oxo-3-(phenylmethyl)-1(2H)-pyridinyl]hexanoyl}amino)propanoic acid]
18 | 300 nM | CCCCC(C(=O)N[C@@H](CC(=O)O)c1ccc(OC)c(C)c1C)n1cccc(Cc2ccccc2)c1=O (stereo partly drawn) [(3S)-3-{[2-(3-benzyl-2-oxopyridin-1(2H)-yl)hexanoyl]amino}-3-(4-methoxy-2,3-dimethylphenyl)propanoic acid]
19 | 300 nM | CCCCC(C(=O)N[C@@H](CC(=O)O)c1cc(C)ccc1C)n1cc(C)cc(Cc2ccccc2)c1=O (stereo partly drawn) [(3S)-3-{[2-(3-benzyl-5-methyl-2-oxopyridin-1(2H)-yl)hexanoyl]amino}-3-(2,5-dimethylphenyl)propanoic acid]
20 | 130 nM | CCCCC(C(=O)N[C@@H](CC(=O)O)c1ccc(C)c(C)c1)n1cc(C)cc(Cc2ccccc2)c1=O (stereo partly drawn) [(3S)-3-{[2-(3-benzyl-5-methyl-2-oxopyridin-1(2H)-yl)hexanoyl]amino}-3-(3,4-dimethylphenyl)propanoic acid]
21 | 25 nM | CCCCC(C(=O)N[C@@H](CC(=O)O)c1cc(F)cc(F)c1)n1cc(C)cc(Cc2ccccc2)c1=O (stereo partly drawn) [(3S)-3-{[2-(3-benzyl-5-methyl-2-oxopyridin-1(2H)-yl)hexanoyl]amino}-3-(3,5-difluorophenyl)propanoic acid]
22 | 52 nM | CCCCC(C(=O)N[C@@H](CC(=O)O)c1cc(C)cc(C)c1)n1cc(C)cc(Cc2ccccc2)c1=O (stereo partly drawn) [(3S)-3-{[2-(3-benzyl-5-methyl-2-oxopyridin-1(2H)-yl)hexanoyl]amino}-3-(3,5-dimethylphenyl)propanoic acid]
23 | 4 nM | CCCCC(C(=O)N[C@@H](CC(=O)O)c1ccc(OC)c(OCC)c1)n1cc(C)cc(Cc2ccccc2)c1=O (stereo partly drawn) [(3S)-3-{[2-(3-benzyl-5-methyl-2-oxopyridin-1(2H)-yl)hexanoyl]amino}-3-(3-ethoxy-4-methoxyphenyl)propanoic acid]
24 | 35 nM | CCCCC(C(=O)N[C@@H](CC(=O)O)c1cccc(OCC)c1)n1cc(C)cc(Cc2ccccc2)c1=O (stereo partly drawn) [(3S)-3-{[2-(3-benzyl-5-methyl-2-oxopyridin-1(2H)-yl)hexanoyl]amino}-3-(3-ethoxyphenyl)propanoic acid]
